Measured values reported in US20130156753A1 (UNIVERSITY OF ROCHESTER, priority 2010, published 2013).
No end group written: not given here.

Columns and labels:
[1] = system: ANF, β-MHC, α-SMA expression; assay: RT-PCR of cardiac fetal gene expression in NRVMs; type: cell-based, rat; settings: NRVMs with GFP-HDAC5-WT; PE 24 hours
Description: The mRNA was extracted from the cell lysates and then RT-PCR with the primers for ANF, β-MHC, α-SMA, and GADPH (internal control) was performed. *, p<0.05 versus PE+Ad-GFP; #, p<0.05 versus PE+GFP-HDAC5-WT, n=4.
The mRNA was extracted from the cell lysates, and quantitative RT-PCR with the primers for ANF and GADPH (internal control) were performed as described in the Examples. Quantitative data are shown (n=4).
Total RNA was isolated from NRVM using TRIzol (Invitrogen Corp.). Firststrand cDNA was synthesized with the SuperScript Preamplification System (Gibco-BRL). cDNA was amplified by PCR for 30 cycle (Applied Biosystem) as described previously (4, 5). Rat GAPDH served as an internal control. The following oligonucleotide primers were used in this study: rat ANF, sense 5′-[…]-3′ (SEQ ID NO:11) and antisense 5′-[…]-3′(SEQ ID NO:12) rat α-SMA, sense 5′-[…]-3′ (SEQ ID NO:13) and antisense 5′-[…]-3′ (SEQ ID NO:14); rat β-MHC (myosin heavy chain), sense 5′-[…]-3′ (SEQ ID NO:15) and antisense 5′-[…]-3′ (SEQ ID NO:16); rat GAPDH, sense 5′-[…]-3′ (SEQ ID NO:17) and antisense 5′-[…]-3′ (SEQ ID NO:18). Experiments were repeated three times.

[2] = system: NRVMs; assay: Cardiomyocyte hypertrophy (cell size, α-actinin immunostaining) in NRVMs; type: cell-based, rat
Description: A-H, Cardiomyocyte size was detected by immunostaining with anti-α-actinin antibody. […] The cells were fixed and analyzed for GFP-HDAC5 localization, α-actinin staining and nuclear DAPI staining *, p<0.05 versus without PE; #, p<0.05 versus with PE alone. I, Schematic model for PKA-dependent regulation of HDAC5 subcellular localization and gene transcription.
Cardiomyocyte protein marker α-actinin was detected by immunofluorescence using antibody against α-actinin and fluorescein-conjugated secondary antibody.
(§1) After 24 hour culture, cells were maintained in serum-free DMEM medium for additional 24 hours, and then exposed to various inducers or inhibitors (for 30 minutes) prior to PE or PMA stimulation for indicated times. The cells were washed with PBS and fixed with 3.7% formaldehyde in PBS. Images were captured at a magnification of ×60, using a fluorescence microscope (Olympus BX51) equipped with a digital camera and Spot software system (RT Color Diagnostic Instruments). For analysis of the myocyte marker, sarcomeric α-actinin antibody and DAPI in neonatal cardiomyocyte, immunocytochemistry were performed according to a standard protocol. For subcellular localization of endogenous HDAC5 in cardiomyocyes, we fixed cells and used the detergent Saponin (Sigma, 84510) to make cells permeable, and then performed immunocytochemistry with anti-HDAC5 antibody (Santa Cruz, sc-11419). For subcellular localization of HDAC5, total around 200 cells were counted in each condition. For cardiomyocyte size, total myocyte surface areas were calculated using NIH Image J software, and expressed as the average of 100 randomly selected cells per condition.

[3] = system: HDAC5 nuclear export; assay: PE-induced HDAC5 nuclear export in neonatal rat ventricular cardiomyocytes (NRVMs); type: cell-based
Description: (§2) A, B, Cos7 cells were co-transfected with expression vectors encoding GFP-tagged HDAC5 (GFP-HDAC5) and constitutively active protein kinases as indicated, and then exposed to phorbol-12-myristate-13-acetate (PMA, […]) for 3 hours. […] A-F, The cells were fixed and the subcellular localization of GFP-HDAC5 was visualized by fluorescence microscopy.
(§3) The cells were fixed and GFP-HDAC5 localization was analyzed by fluorescence microscopy. α-actinin was detected by immunofluorescence using an antibody against α-actinin and a fluorescein-conjugated secondary antibody. The nuclei were stained with DAPI.
as §3, with “DAPI. B, PKA expression in cell lysates were determined by Western blot using PKA antibody.” for “DAPI.”
The cells were fixed and endogenous HDAC5 localization was analyzed by fluorescence microscopy. HDAC5 and α-actinin was detected by immunocytochemistry with antibody against HDAC5 and α-actinin.
The cells were fixed and GFP-HDAC5 subcellular localization was analyzed by fluorescence microscopy and stained with an α-actinin antibody and DAPI.
Cos7 cells were grown in Dulbecco's Modified Eagle's Medium (DMEM) supplemented with fetal bovine serum (10%), 1-glutamine and penicillin/streptomycin. Primary cultures of neonatal rat cardiac ventricular myocytes (NRVMs) from 1- to 2-day-old Sprague-Dawley rats (Charles River Laboratories) were prepared. In brief, NRVMs were dispersed from the ventricles by digestion with collagenase type II (Worthington). Cells were cultured in Dulbecco's modified Eagle's medium (DMEM) supplemented with 1,000 mg/L D-glucose, L-glutamine, and 110 mg/L sodium pyruvate (GIBCO), fetal bovine serum (10%), and penicillin/streptomycin at 37° C. in a 5% CO2 humidified atmosphere for 2-3 days. For inducer or inhibitor studies, cells were pretreated with various inducers or inhibitors for 30 min in serum-free medium. Primary cultures of adult rat cardiomyocytes were prepared from 200-250g male Sprague-Dawley rats. Briefly, rats were anesthetized, hearts excised and placed in Krebs buffer and perfused and digested with endotoxin-free collagenase II (Worthington). This protocol typically yielded approximately 4×10^6 cells per heart, with ˜85% surviving, rod-shaped Ca2+-tolerant cells. Myocytes were allowed to attach to 20 μg/ml laminin coated plates in Modified Eagle Medium (MEM) containing 2.5% FBS, 25 mmol/L HEPES, 5 mmol/L taurine, 2 mmol/L carnitine, 2 mmol/L creatinine, 100 IU/ml penicillin, and 100 μg/ml streptomycin for 2 hrs before replacing with serum-free MEM containing 25 mmol/L HEPES, 5 mmol/L taurine, 2 mmol/L carnitine, 2 mmol/L creatinine, 100 IU/ml penicillin, and 100 μg/ml streptomycin.
Adenoviruses encoding Flag-tagged HDAC5 wild-type (WT), GFP-tagged HDAC5-WT, and YFP-tagged HDAC7-WT were generated as described previously (Ha C H, et al. (2008) Protein Kinase D-dependent Phosphorylation and Nuclear Export of Histone Deacetylase 5 Mediates Vascular Endothelial Growth Factor-induced Gene Expression and Angiogenesis. J Biol Chem 283(21):14590-14599; Ha C H et al. (2008) VEGF stimulates HDAC7 phosphorylation and cytoplasmic accumulation modulating matrix metalloproteinase expression and angiogenesis. Arterioscler Thromb Vasc Biol 28(10):1782-1788). Adenovirus expressing GFP-tagged HDAC5-S280A mutant, GFP-tagged HDAC5-S280D mutant and Flag-tagged HDAC5-S280A mutant were generated by using ViraPower Adenoviral Expression System (Invitrogen) according to the manufacturer's protocol. Adenovirus containing β-galactosidase (LacZ) or GFP was used as a control. […]

[4] = system: HDAC7 nuclear export; assay: PMA-induced YFP-HDAC7 nuclear export in Cos7 cells; type: cell-based
Description: Transient transfection of plasmid DNA was performed using lipofectamine 2000 (Invitrogene, Carlsbad, Calif.) and 0.5 μg of the indicated plasmids.

[5] = system: HDAC5 nuclear export; assay: PMA-induced GFP-HDAC5 nuclear export in Cos7 cells (fluorescence microscopy); type: cell-based; settings: for PMA-induced HDAC5 nuclear export: GFP-HDAC5-WT, pretreatment, then PMA for 3 hours
Description: as §2
C, D, Cos7 cells were transfected with GFP-HDAC5-WT or GFP-HDAC5-S280D and then exposed to PMA for 3 hours. GFP-HDAC5-S280D but not GFP-HDAC5-WT was resistant to PMA-induced nuclear export. *, p<0.05 versus without PMA, n=4. E, F, Cos7 cells were transfected with Flag-HDAC5-WT or Flag-HDAC5-S280A mutant, and then pretreated with forskolin followed with the exposure to PMA. Phosphorylation of HDAC5 in cell lysates was analyzed by immunoblotting with phospho-specific HDAC5 antibodies that recognize the HDAC5 phosphorylated at Ser259 (E) and Ser498 (F). G, H, Cos7 cells were transfected with Flag-HDAC5-WT, Flag-HDAC5-S280A or Flag-HDAC5-S280D, and then pretreated with forskolin, followed with the exposure to PMA. Coimmunoprecipitation of Flag-HDAC5 in cell lysates and then immunoblotting with anti-14-3-3 beta and anti-Flag antibodies in immunoprecipitates were performed. 14-3-3 in total cell lysates (5% of the input) was determined by immunoblotting with anti-14-3-3 antibodies. Representative blots are shown, n=3.
The cells were fixed and GFP-HDAC5 localization was analyzed by fluorescence microscopy.
For analysis of GFP-HDAC5 subcellular localization in NRVMs and Cos7 cells, cells were plated in the presence of adenovirus (multiplicity of infection, 50 to 100) on 35 mm dishes containing DMEM plus 10% FBS as previously described (Vega R B, et al. (2004) Protein kinases C and D mediate agonist-dependent cardiac hypertrophy through nuclear export of histone deacetylase 5. Mol Cell Biol 24(19):8374-8385).
as §1

[6] = system: Myc-HDAC5 AA 1-360
Myc-HDAC5 AA 1-360, sequence (chain, as listed by the source): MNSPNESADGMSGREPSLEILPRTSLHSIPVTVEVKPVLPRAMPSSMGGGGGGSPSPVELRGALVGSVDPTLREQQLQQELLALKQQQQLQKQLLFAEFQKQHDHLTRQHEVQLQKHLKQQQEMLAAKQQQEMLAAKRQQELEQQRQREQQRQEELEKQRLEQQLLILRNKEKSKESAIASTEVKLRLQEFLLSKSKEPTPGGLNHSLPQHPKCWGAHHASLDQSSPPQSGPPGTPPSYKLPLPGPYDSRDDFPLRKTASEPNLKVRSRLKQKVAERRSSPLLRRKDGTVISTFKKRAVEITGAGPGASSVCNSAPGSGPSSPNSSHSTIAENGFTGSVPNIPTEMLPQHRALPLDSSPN

[7] = system: T1, GST-HDAC5-WT (273-286)
T1 sequence: KVAERRSSPLLRRK

[8] = NRVMs with GFP-HDAC5-WT, PE 24 hours

In the case of CNC[C@H](O)c1cccc(O)c1 [PE, R-(−)-Phenylephrine], the “expression of ANF, β-MHC and α-SMA (stimulus alone)” value [1] was “significantly increased expression of ANF, β-MHC and α-SMA”, the “cell size (stimulus alone)” value [2, 8] was “increased cell size” and the “HDAC5 localization (stimulus alone)” value [3, 8] was “HDAC5 nuclear export”.
For C=C[C@@]1(C)CC(=O)[C@]2(O)[C@@]3(C)[C@@H](O)CCC(C)(C)[C@@H]3[C@H](O)[C@H](OC(C)=O)[C@@]2(C)O1 [forskolin], the “PMA-induced nuclear export of YFP-HDAC7 (WT)” value [4] was “no inhibitory effect”.
With “PKA Inhibitor 14-22 Amide (SGRTGRRNA-NH2; UniProt P61925 14-22, looked up, fragment) [PKI]” the “effect on the inhibition of HDAC5 nuclear export by forskolin and cAMP” value ([5]; GFP-HDAC5, PKI pretreatment, then forskolin or cAMP, then PMA 3 hours) was “abolished the inhibition of forskolin and cAMP on HDAC5 nuclear export” and the “effect on the inhibitory effects of cAMP on PE-induced HDAC5 nuclear export” value ([3]; NRVMs, GFP-HDAC5, PKA inhibition, then cAMP, PE 3 hours) was “abolished the inhibitory effects of cAMP on PE-induced HDAC5 nuclear export”.
For “purified catalytic subunit of protein kinase A (PKA-CA, Calbiochem)”, the “in vitro kinase assay, 32P autoradiography” value [6] was “the similar phosphorylation by PKA-CA in an in vitro kinase assay (FIG. 14) was also detected” and the “in vitro kinase assay, 32P autoradiography” value [7] was “recombinant PKA-CA phosphorylated the GST-tagged peptide of HDAC5-WT”.
For CN(C(=O)CCCOc1ccc2[nH]c(=O)ccc2c1)C1CCCCC1 [cilostamide], the “PMA-induced HDAC5 nuclear export” value [5] was “did not block HDAC5 nuclear export”.
In the case of CC(C)Cn1c(=O)n(C)c(=O)c2[nH]cnc21 [IBMX, 3-isobutyl-1-methylxanthine], the “PMA-induced HDAC5 nuclear export” value [5] was “inhibited HDAC5 nuclear export”.
For CC(C)NCC(O)c1ccc(O)c(O)c1 (stereo not shown) [isoproterenol], the “PMA-induced HDAC5 nuclear export” value [5] was “inhibited HDAC5 nuclear export” and the “PE-stimulated HDAC5 nuclear export” value ([3]; NRVMs, adenoviral GFP-HDAC5, 30 min pretreatment, PE 10 μM 3 hours) was “markedly inhibited PE-stimulated HDAC5 nuclear export”.
For COc1ccc(C2CNC(=O)C2)cc1OC1CCCC1 (stereo not shown) [rolipram], the “PMA-induced HDAC5 nuclear export” value [5] was “inhibited HDAC5 nuclear export” and the “PE/Angiotensin II-induced cardiomyocyte hypertrophy” value ([2]; NRVMs, forskolin 10 μM, cAMP 500 μM, Rolipram 10 μM 30 min, PE or Angiotensin II 24 hours) was “inhibit PE/Angiotensin II-induced cardiomyocyte hypertrophy”.
In the case of CCCC(=O)Nc1nc2c(ncn2[C@@H]2O[C@@H]3COP(=O)(O)O[C@H]3[C@H]2OC(=O)CCC)c(=O)[nH]1 [cGMP, DibutyrylcGMP], the “PMA-induced HDAC5 nuclear export” value [5] was “did not block HDAC5 nuclear export”.
In the case of CCCCCC[C@@H]([C@@H](C)O)n1cnc2c(N)ncnc21 (racemic) [EHNA, erythro-9-(2-hydroxy-3-nonyl)adenine], the “PMA-induced HDAC5 nuclear export” value [5] was “inhibited HDAC5 nuclear export”.
